Values quoted from earlier work in US20110168623A1, “FEED SIDE PASSAGE MATERIAL AND SPIRAL SEPARATION MEMBRANE ELEMENT” (priority 2008, published 2011).

Oc1cc(Cl)ccc1Oc1ccc(Cl)cc1Cl [triclosan, 2,4,4′-trichloro-2′-hydroxy diphenyl ether]
antibacterial effect on Pseudomonas aeruginosa (Pseudomonas aeruginosa): small or comparatively small antibacterial effect | antibacterial effect on Aspergillus niger (Aspergillus niger): small or comparatively small antibacterial effect | antibacterial effect on Candida yeast (Candida yeast): small or comparatively small antibacterial effect
